{
  "source": "patent US5539123A",
  "about": "“Low molecular weight thiocarbamates as inhibitors of elastase, uses and method of synthesis” (University of Kentucky Research Foundation, priority 1994, dated 1996)",
  "system": "Zymosan Induced Inflammation",
  "assay": "Zymosan-induced paw inflammation (arthritis) in rats, percent volume increase of the paw",
  "type": "in vivo, rat",
  "conditions": "for % Oedema Volume change: 3.6 × 10^-5 mg/g IP vs control",
  "description": "A reversible arthritic condition was induced according to known procedures for the Zymosan-induced arthritis (See J. P. Tarayre, A. Delphon, et al., Pharmacological studies in zymosan inflammation in rats and mice, I: Zymosan-induced paw edema in rat and mice, Pharmacological Research, 21, (#4) 375-384 (1989); Takuo Sato, Yoshitaka Ino, et al., Inhibitory effects of a novel synthetic protease inhibitor (FUT-175), on the paw edema in rats and Zymosan-induced compliment activation in vitro, Japan J. Pharmacol., 42,587-589 (1986); David K. Gremmell, et al., Comparative effects of drugs on four paw edema models on the rat, Agents and Actions 4, (#1) 107-116 (1979); and D. C. Keystone, et al., Zymosan-induced arthritis: A model of chronic proliferative arthritis following activation of the alternative pathway of compliment, Arthritis and Rheumatism 20 (#7) 1396-1401 (1977)).\nEach rat (250 g each) was kept in a restraining cage with light ether anesthesia until the administration of the drug. The procedure involves the intramuscular (IM) injection of 1 mg of Zymosan in 50 μL (microliters) of normal saline in the pad of a hind paw of the rat. Swelling becomes evident within 20 minutes and reaches a maximum within 1.5 hours. The swelling disappears after 24 hours. In the Figures the reversal to normal size of the paw within 24 hours is not shown. The degree of swelling is measured by a water displacement method and the percent (%) of volume increase of the paw is plotted against time (see J. P. Tarayre, A. Delphon, et al., Pharmacological studies in zymosan inflammation in rats and mice. I: Zymosan-induced paw edema in rat and mice, Pharmaco-logical Research, 21, (#4) 375-384 (1989); Takuo Sato, Yoshitaka Ino, et al., Inhibitory effects of a novel synthetic protease inhibitor (FUT-175), on the paw edema in rats and Zymosan-induced compliment activation in vitro, Japan J. Pharmacol., 42, 587-589 (1986)).\nControl was conducted by injecting I.P. 100 μl of propylene glycol (the vehicle) 15 min. prior to Zymosan administration. […] Data from tables 1 and 1a are plotted in FIGS. 1 and 1a respectively.\nIn the experimental procedure the drug [PC-16, […] (FIG. 2) or 90 μg/rat (FIG. 3)] is dissolved in 100 μL of propylene glycol and is injected IP to the rats. Fifteen minutes later the Zymosan (1mg/50 μL of normal saline) solution is injected IM into the paw of the rats. The degree of swelling is subsequently measured at various time intervals for a period of 24 hours and is reported up to 4 hours.",
  "key": {"[1]": {"conditions": "3.6 × 10^-4 mg/g IP, time (min) = first number of the line"}},
  "note": "Where “and” joins values, the source holds several entries; their conditions need not be identical. Equal values may be shown once. Entries after “also recorded” stand apart in the source; their conditions may differ.",
  "data": [
    {"smiles": "CCCCNC(=O)Sc1nnnn1-c1ccccc1", "note": "[PC-16]", "values": [
      {"measurement": "% Volume Increase", "setting": "3.6 × 10^-4 mg/g IP, 205 min", "result": 3.41, "unit": "%"},
      {"measurement": "% Volume Increase, Mean of 3 experiments", "setting": "3.6 × 10^-4 mg/g IP, 210 min", "result": 3.48, "unit": "%"},
      {"measurement": "% Volume Increase, Mean of 3 experiments", "setting": "3.6 × 10^-4 mg/g IP, 220 min", "result": 3.30, "unit": "%"},
      {"measurement": "% Volume Increase", "setting": "3.6 × 10^-4 mg/g IP, 225 min", "result": 3.32, "unit": "%"},
      {"measurement": "% Volume Increase, Mean of 3 experiments", "setting": "3.6 × 10^-4 mg/g IP, 230 min", "result": 3.34, "unit": "%"},
      {"measurement": "% Volume Increase, Mean of 3 experiments", "setting": "3.6 × 10^-4 mg/g IP, 240 min", "result": 2.93, "unit": "%"},
      {"measurement": "% Volume Increase, Experiment #3", "setting": "[1]", "result": "0.00% and 1.02% and 1.55% and 2.18% and 2.75% and 3.44% and 3.50%"},
      {"measurement": "Volume, Experiment #3", "setting": "[1]", "result": "1.65 mL and 1.67 mL and 1.68 mL and 1.69 mL and 1.70 mL and 1.71 mL"},
      {"measurement": "% Oedema Volume change", "setting": "10 min", "result": 28.0, "unit": "%"},
      {"measurement": "% Oedema Volume change", "setting": "20 min", "result": -42.8, "unit": "%"},
      {"measurement": "% Oedema Volume change", "setting": "30 min", "result": -54.1, "unit": "%"},
      {"measurement": "% Oedema Volume change", "setting": "40 min", "result": -58.3, "unit": "%"},
      {"measurement": "% Oedema Volume change", "setting": "50 min", "result": -60.8, "unit": "%"},
      {"measurement": "% Oedema Volume change", "setting": "60 min", "result": -65.8, "unit": "%"},
      {"measurement": "% Oedema Volume change", "setting": "65 min", "result": -64.8, "unit": "%"},
      {"measurement": "% Oedema Volume change", "setting": "70 min", "result": -65.7, "unit": "%"},
      {"measurement": "% Oedema Volume change", "setting": "80 min", "result": -63.9, "unit": "%"},
      {"measurement": "% Oedema Volume change", "setting": "95 min", "result": -66.4, "unit": "%"},
      {"measurement": "% Oedema Volume change", "setting": "100 min", "result": -68.2, "unit": "%"},
      {"measurement": "% Oedema Volume change", "setting": "105 min", "result": -68.7, "unit": "%"},
      {"measurement": "% Oedema Volume change", "setting": "115 min", "result": -69.9, "unit": "%"},
      {"measurement": "% Oedema Volume change", "setting": "120 min", "result": -69.6, "unit": "%"},
      {"measurement": "% Oedema Volume change", "setting": "130 min", "result": -68.8, "unit": "%"},
      {"measurement": "% Oedema Volume change", "setting": "135 min", "result": -65.8, "unit": "%"},
      {"measurement": "% Oedema Volume change", "setting": "145 min", "result": -64.6, "unit": "%"},
      {"measurement": "% Oedema Volume change", "setting": "150 min", "result": -67.7, "unit": "%"},
      {"measurement": "% Oedema Volume change", "setting": "160 min", "result": -67.4, "unit": "%"},
      {"measurement": "% Oedema Volume change", "setting": "175 min", "result": -66.7, "unit": "%"},
      {"measurement": "% Oedema Volume change", "setting": "190 min", "result": -69.2, "unit": "%"},
      {"measurement": "% Oedema Volume change", "setting": "200 min", "result": -67.6, "unit": "%"},
      {"measurement": "% Oedema Volume change", "setting": "205 min", "result": -65.6, "unit": "%"},
      {"measurement": "% Oedema Volume change", "setting": "210 min", "result": -63.4, "unit": "%"},
      {"measurement": "% Oedema Volume change", "setting": "220 min", "result": -61.2, "unit": "%"},
      {"measurement": "% Oedema Volume change", "setting": "225 min", "result": -61.9, "unit": "%"},
      {"measurement": "% Oedema Volume change", "setting": "240 min", "result": -62.7, "unit": "%"},
      {"measurement": "% Volume Increase, Mean of 3 experiments", "setting": "3.6 × 10^-5 mg/g IP, 0 min", "result": 0.00, "unit": "%"},
      {"measurement": "% Volume Increase, Mean of 3 experiments", "setting": "3.6 × 10^-5 mg/g IP, 10 min", "result": 12.2, "unit": "%"},
      {"measurement": "% Volume Increase, Mean of 3 experiments", "setting": "3.6 × 10^-5 mg/g IP, 20 min", "result": 16.3, "unit": "%"},
      {"measurement": "% Volume Increase, Mean of 3 experiments", "setting": "3.6 × 10^-5 mg/g IP, 30 min", "result": 17.3, "unit": "%"},
      {"measurement": "% Volume Increase, Mean of 3 experiments", "setting": "3.6 × 10^-5 mg/g IP, 40 min", "result": 18.8, "unit": "%"},
      {"measurement": "% Volume Increase, Mean of 3 experiments", "setting": "3.6 × 10^-5 mg/g IP, 50 min", "result": 19.1, "unit": "%"},
      {"measurement": "% Volume Increase, Mean of 3 experiments", "setting": "3.6 × 10^-5 mg/g IP, 60 min", "result": 19.5, "unit": "%"},
      {"measurement": "% Volume Increase, Mean of 3 experiments", "setting": "3.6 × 10^-5 mg/g IP, 65 min", "result": 19.8, "unit": "%"},
      {"measurement": "% Volume Increase, Mean of 3 experiments", "setting": "3.6 × 10^-5 mg/g IP, 70 min", "result": 20.0, "unit": "%"},
      {"measurement": "% Volume Increase, Mean of 3 experiments", "setting": "3.6 × 10^-5 mg/g IP, 80 min", "result": 20.5, "unit": "%"},
      {"measurement": "% Volume Increase, Mean of 3 experiments", "setting": "3.6 × 10^-5 mg/g IP, 95 min", "result": 19.7, "unit": "%"},
      {"measurement": "% Volume Increase, Mean of 3 experiments", "setting": "3.6 × 10^-5 mg/g IP, 100 min", "result": 18.6, "unit": "%"},
      {"measurement": "% Volume Increase, Mean of 3 experiments", "setting": "3.6 × 10^-5 mg/g IP, 105 min", "result": 18.4, "unit": "%"},
      {"measurement": "% Volume Increase, Mean of 3 experiments", "setting": "3.6 × 10^-5 mg/g IP, 115 min", "result": 17.9, "unit": "%"},
      {"measurement": "% Volume Increase, Mean of 3 experiments", "setting": "3.6 × 10^-5 mg/g IP, 120 min", "result": 17.7, "unit": "%"},
      {"measurement": "% Volume Increase, Mean of 3 experiments", "setting": "3.6 × 10^-5 mg/g IP, 130 min", "result": 17.7, "unit": "%"},
      {"measurement": "% Volume Increase, Mean of 3 experiments", "setting": "3.6 × 10^-5 mg/g IP, 135 min", "result": 17.7, "unit": "%"},
      {"measurement": "% Volume Increase, Mean of 3 experiments", "setting": "3.6 × 10^-5 mg/g IP, 145 min", "result": 17.7, "unit": "%"},
      {"measurement": "% Volume Increase, Mean of 3 experiments", "setting": "3.6 × 10^-5 mg/g IP, 150 min", "result": 15.6, "unit": "%"},
      {"measurement": "% Volume Increase, Mean of 3 experiments", "setting": "3.6 × 10^-5 mg/g IP, 160 min", "result": 15.2, "unit": "%"},
      {"measurement": "% Volume Increase, Mean of 3 experiments", "setting": "3.6 × 10^-5 mg/g IP, 175 min", "result": 14.4, "unit": "%"},
      {"measurement": "% Volume Increase, Mean of 3 experiments", "setting": "3.6 × 10^-5 mg/g IP, 190 min", "result": 12.6, "unit": "%"},
      {"measurement": "% Volume Increase, Mean of 3 experiments", "setting": "3.6 × 10^-5 mg/g IP, 200 min", "result": 13.3, "unit": "%"},
      {"measurement": "% Volume Increase, Mean of 3 experiments", "setting": "3.6 × 10^-5 mg/g IP, 205 min", "result": 13.5, "unit": "%"},
      {"measurement": "% Volume Increase, Mean of 3 experiments", "setting": "3.6 × 10^-5 mg/g IP, 210 min", "result": 13.6, "unit": "%"},
      {"measurement": "% Volume Increase, Mean of 3 experiments", "setting": "3.6 × 10^-5 mg/g IP, 220 min", "result": 13.6, "unit": "%"},
      {"measurement": "% Volume Increase, Mean of 3 experiments", "setting": "3.6 × 10^-5 mg/g IP, 225 min", "result": 12.4, "unit": "%"},
      {"measurement": "% Volume Increase, Mean of 3 experiments", "setting": "3.6 × 10^-5 mg/g IP, 240 min", "result": 12.1, "unit": "%"},
      {"measurement": "oedema reduction of rat paw", "setting": "injected prior to Zymosan, compared with control", "result": "impressive oedema reduction; also recorded: impressive reduction in edema swelling"}
    ]}
  ]
}
